The subject of series [1] is SARS-CoV-2 S protein. It counts as cell-based.
The test system of series [2] is SARS-CoV-2 S protein. It counts as cell-based. This is another data set of the same source.
Series [3] concerns recombinant Mus musculus α-Glu II. As to the kind of experiment: Thermal shift assay (SYPRO orange). It is filed as binding. The following applies: 10 μM Mmα-Glu-II with 50 μM inhibitor; unliganded control 49.9 °C.
The test system of series [4] is SARS-CoV-2. As to the kind of experiment: Viral load reduction assay in Calu-3 cells, infectious virus titer by plaque assay. It counts as cell-based. The procedure:
Cells were pretreated with 11 and infected with SARS-CoV-2 at a multiplicity of infection (MOI) of 1. At 16 h postinfection (hpi) supernatant was harvested to quantify the infectious virus titer by plaque assay and extracellular viral RNA copies by RT-qPCR. […] This is in line with the expected mechanism of action of the compound that involves viral (structural) protein maturation, likely resulting in reduced infectivity of progeny virus. We then calculated the specific infectivity (defined as the number of infectious particles per viral RNA copy) of treated and untreated samples for the data in Figure 3A,B (Figure 3C). […] None of the treatments caused noticeable cytotoxicity in uninfected treated cells (Figure 3B). Similarly, treatment of infected Calu-3 lung epithelial cells with 11 reduced infectious progeny virus titers by ∼10-fold, while no reduction in extracellular viral RNA copies was observed (Figure S3).
Figure S2: Cytopathic effect reduction assays on Vero E6 monkey kidney cells and H1299/ACE2 human lung epithelial cells. […]
plaque assay and RT-qPCR, respectively. Uninfected compound-treated cells were assessed by MTS assay in parallel to measure cytotoxicity of the compounds. n=3 independent experiments. […]

The subject of series [5] is SARS-CoV-2. It counts as cell-based.
Series [6] concerns SARS-CoV-2. As to the kind of experiment: Plaque reduction assay on H1299/ACE2 cells (time of treatment). It counts as cell-based. The procedure:
To evaluate whether compound 11 has an effect on host proteins (for instance, ACE2) involved in viral entry, we treated monolayers of H1299/ACE2 cells with compound 11 either 48 or 2 h before infection, during infection (0–1 h), or starting from 1 h postinfection (hpi). The cell monolayers were infected with ∼20 PFU of SARS-CoV-2, and after 1 h the inoculum was replaced with an overlay. In one well (Post Infection) the overlay contained compound 11. Remdesivir, a viral RNA synthesis inhibitor, was added to the overlay of another well, as a positive control for blocking virus replication in the cell.
H1299/ACE2 cells were seeded in a 6-well plate at a density of 1.3 × 10^5 cells/well (20% confluency), 96 h prior to infection. […] The monolayers were infected with ∼20 PFU of SARS-CoV-2/Leiden0008. In the postinfection treatment, the compound (or RDV) was added to the Avicel overlay. Cells were incubated for 4 days at 37 °C before fixation and crystal violet staining.

A short description of a further series: in vitro. The following applies: African green monkey.
For the next series, the system named is GCS. Also on record: method as in PMID 28776021. The following applies: cited from earlier work.
The next series has as its system ER α-Glu II (GANAB). As to the kind of experiment: Competitive activity-based protein profiling with ABP 29 in ALI-PBEC lysate, GANAB. It counts as cell-based, human.
For another series, the system named is HCoV-229E. It counts as cell-based.
In series [7] the test system is SARS-CoV-2. As to the kind of experiment: Virucidal activity assay. As to conditions: virus incubated 1 h; compound 11 at 50 μM.
Another series deals with GBA3. The following applies: cited from earlier work.
Series [8] relates to SARS-CoV-2. As to the kind of experiment: Viral load reduction assay on H1299/ACE2 cells, extracellular viral RNA copies by RT-qPCR. It is filed as cell-based. In general terms: Quantitative PCR measures a nucleic acid by following its amplification.
The test system of a further series is SARS-CoV. It is filed as cell-based. The following applies: Vero E6, MOI 1, 16 hpi, increasing concentrations.

A value given as a limit tells only on which side of the number the result lay.

`O=S1(=O)O[C@@H]2[C@H](O)[C@@H](O)[C@H](O)[C@@H](CO)[C@@H]2O1` [Compound 11, 1,6-epi-cyclophellitol cyclosulfate]: in the series on SARS-CoV-2 S protein [1], the “S protein in infected cells (immunofluorescence)” value was “reduction in the amount of S protein” and the syncytium formation entry was “reduced syncytium formation”. In the series on SARS-CoV-2 S protein [2], the “(processed) S2 in the medium” value is listed as “strongly reduced”, the “full-length S protein in the cell lysate” value was “minor reduction” and the “∼90 kDa S2 fragment in the cell lysate” value was “almost complete disappearance”. Moreover, the “Tm/°C” value in series [3] came to 63.3 °C. The “reduction of infectious virus titers” value in the series with SARS-CoV-2 [4] (Calu-3, 0.5–1.6 μM) is listed as “up to 2 logs”. For the same compound, the “reduction of infectious progeny virus titers” value in the series on SARS-CoV-2 [4] (Calu-3, MOI 1, 16 hpi) was around 10 fold. For the same compound, in the series on SARS-CoV-2 [5], the “concentration at which the inhibitory effect reached a plateau” value was determined as 1.6 µM and the “reduction of the infectious progeny virus titer” value amounted to 100 fold. Moreover, the “specific infectivity (infectious particles per viral RNA copy)” value in the series with SARS-CoV-2 [5] (H1299/ACE2, 1.5 μM compound) was “decrease in specific infectivity”. The “plaque formation, pretreatment or treatment only during infection” value in the series with SARS-CoV-2 [6] (H1299/ACE2, 5 μM, 48 or 2 h before or 0–1 h) is given as “had no effect on the number of plaques that developed or their morphology”. Further, the “plaque formation, treatment after infection (in the overlay)” value in the series on SARS-CoV-2 [6] (H1299/ACE2, compound 11 at 5 μM) is listed as “prevented the formation of plaques”. For the same compound, in “in vitro”, the CC50 at 3 days was above 200 µM. Also, the “inhibition of GCS” value in the series on GCS is “does not inhibit”. Also, the “ER α-Glu II inhibition in ALI-PBEC (in words)” value in the series on ER α-Glu II (GANAB) (0.5 μM) is given as “almost full inhibition”. The “in cellulo ER α-Glu II inhibition by ABP 29 labeling (in words)” value in the series with ER α-Glu II (GANAB) (pH 7) is “most efficient in inhibiting ER α-Glu II and GAA at low concentrations”. In addition, the “virus infectivity of HCoV-229E (in words)” value with HCoV-229E is listed as “did not show any reduction in virus infectivity”. The “virucidal effect on infectious titer” value in the series with SARS-CoV-2 [7] was “no effect on the infectious titer”. In addition, the “inhibition of GBA3” value in the series on GBA3 is on record as “does not inhibit”. Also, the “extracellular viral RNA copy numbers (in words)” value in the series on SARS-CoV-2 [8] is given as “only slightly reduced”. Moreover, the “infectious progeny of SARS-CoV (in words)” value with SARS-CoV was “significant reduction of infectious progeny”.

The values above are taken from publication PMC11363342 (ACS Central Science, 2024).
